{"source": "paper PMC6916168", "about": "“Multifunctional Glycoconjugates for Recruiting Natural Antibodies against Cancer Cells” (Chemistry (Weinheim an Der Bergstrasse, Germany), 2019)", "molecular_target": "human anti-Rha IgM", "assay": "Competitive ELISA: inhibition of human anti-Rha IgM binding to PAA-Rha coated wells", "conditions": "indirect competitive ELISA; human serum 20 %; PAA-Rha coating 5 μg mL^−1; 1 h at 37 °C; Alexa-Fluor488 goat anti-human IgM (1:400), fluorescence Ex 488/Em 530 nm; average of three independent experiments; read-out: IC50, inhibition of binding of human anti-Rha IgM to Rha coated wells (monovalent control)", "experimental": "We next performed enzyme‐linked immunosorbent assay (ELISA)‐type studies to evaluate the ability of glycoconjugates 3 and 6 to bind natural Abs. Microtiter plates were first coated with a commercial Rha‐functionalized poly[N‐(2‐hydroxyethyl)acrylamide] polymer (PAA‐Rha) and incubated with human serum, a source of anti‐Rha antibodies, then fluorescent goat anti‐human IgM and IgG. […] This observation is in good agreement with previous studies showing strong ratio variations of circulating antibodies in human sera.15, 16 A competitive assay was next performed with glycoconjugates 3 and 6 as inhibitors and Rha as the monovalent control (Figure 1). […]\nThe ability of the ABMs to recruit anti‐Rha antibodies present in human serum (HS) was evaluated by an indirect competitive ELISA binding study. […] The fluorescence has been measured by using an Omega BMG LABTECH plate reader (Ex: 488 nm/ Em: 530 nm). The percentage of binding inhibition of the human anti‐Rha IgM antibody to the rhamnose‐coated microplate was calculated by using the formula: inhibition (%)=((F max−F)/F max)×100. F max corresponds to the mean value of the higher fluorescence limit reached in the dilution series of each rhamnose conjugate whereas F is the fluorescence red for each concentration of the compound tested. The fluorescence values used in this formula were an average of triplicate experiments. […]"}
{"compound": "C[C@H](O)[C@H](O)[C@@H](O)[C@@H](O)C=O", "note": "[Rha, L‐rhamnose]", "values": [{"measurement": "IC50", "result": 1.2, "unit": "mM"}]}
